In PubChem BioAssay (NCI):
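Briefly, cells in 96-well plates were exposed to five compound concentrations for 48 h, and endpoints were estimated by linear interpolation. Abbreviation: GI50, concentration required for 50% inhibition of growth. TGI marks complete inhibition of growth.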

Columns and labels:
Assay in all cases: inhibition of tumour cell growth, NCI panel, 48 h
DU-145 prostate = tested on: DU-145 prostate
M14 melanoma = tested on: M14 melanoma
MDA-MB-231 breast = tested on: MDA-MB-231 breast
MDA-MB-435 = tested on: MDA-MB-435
SK-OV-3 ovarian = tested on: SK-OV-3 ovarian
T-47D breast = tested on: T-47D breast
TK-10 renal = tested on: TK-10 renal
786-0 renal = tested on: 786-0 renal
DLD-1 colon = tested on: DLD-1 colon
DMS 114 small cell lung = tested on: DMS 114 small cell lung
KM20L2 colon = tested on: KM20L2 colon
M19-MEL melanoma = tested on: M19-MEL melanoma

Row | SMILES | GI50 (DU-145 prostate) [µM] | TGI (DU-145 prostate) [µM] | GI50 (M14 melanoma) [µM] | TGI (M14 melanoma) [µM] | GI50 (MDA-MB-231 breast) [µM] | TGI (MDA-MB-231 breast) [µM] | GI50 (MDA-MB-435) [µM] | TGI (MDA-MB-435) [µM] | GI50 (SK-OV-3 ovarian) [µM] | TGI (SK-OV-3 ovarian) [µM] | GI50 (T-47D breast) [µM] | TGI (T-47D breast) [µM] | GI50 (TK-10 renal) [µM] | TGI (TK-10 renal) [µM] | TGI (786-0 renal) [µM] | TGI (DLD-1 colon) [µM] | TGI (DMS 114 small cell lung) [µM] | TGI (KM20L2 colon) [µM] | TGI (M19-MEL melanoma) [µM]
1 | CCN(CC)CCCC(Nc1c2ccc(Cl)cc2nc2ccc(OC)cc12)c1ccc(F)cc1 (stereo not drawn) | 3.23 | 10.4 | 1.88 | 3.58 | 1.47 | 3.08 | 1.73 | 3.2 | 4.33 | 15.9 | 2.15 | 5.66 | 1.81 | 3.58 |  |  |  |  | 
2 | O=C(O)c1cc(=O)[nH]c(=S)[nH]1 |  | > 100 |  | > 100 |  | > 100 |  | > 100 |  | > 100 |  | > 100 |  | > 100 | > 100 |  |  |  | 
3 | CC[C@@H](C(=O)[C@@H](C)[C@@H](O)[C@H](C)CCc1ccc(C)c(O)c1C(=O)O)[C@H]1O[C@](CC)([C@H]2CC[C@](O)(CC)[C@H](C)O2)C[C@@H]1C |  |  |  | 13.8 |  |  |  |  |  | 10.2 |  |  |  | 12.6 | 13.5 | 13.8 | 4.15 | 11.6 | 4.06
4 | COc1c2c(cc3c(CCc4ccccc4)cc(=O)oc13)CCC(C)(C)O2 |  |  |  | > 100 |  |  |  |  |  | > 100 |  |  |  | > 100 |  | > 100 | > 100 | > 100 | > 100
5 | Cc1ccc(/C(=C/C=C(C#N)C#N)Sc2cc(Cl)ccc2Cl)cc1 |  | 13.9 |  | 16.4 |  | 13 |  | 7.46 |  | 27.8 |  | 67.5 |  | 18.7 | 5.01 |  |  |  | 
6 | CC(C)=CCc1c(C)cc2cc3c(c(O)c2c1O)C(O)=CC(=O)C3(CC=C(C)C)C/C=C(\C)CO (stereo not drawn) |  |  |  |  |  |  |  |  |  | 71.4 |  |  |  |  |  | 70.9 | 82 | 76.6 | 79.9
7 | CN1CCN(Cc2ccc(NC(=O)c3ccc(C#N)c(C#Cc4cnc(N)c5ncccc45)c3)cc2C(F)(F)F)CC1 |  |  |  |  |  |  |  |  | 19.3 | 44.6 | 28.6 | > 100 |  |  |  |  |  |  | 
8 | CCCCN(CCCC)CCCCNc1c(C)cnc2cc(Cl)ccc12 |  |  |  | 4.05 |  |  |  |  |  |  |  |  |  | 96 | 32.1 |  | 56.9 | 36.7 | > 100
9 | CCOc1ccc2c(ccc(/C=C\c3cc(C)c4cccnc4c3O)[n+]2C)c1 |  | 18.6 |  | 18.7 |  | 0.632 |  | 13.3 |  | 10.4 |  | 6.2 |  | 6 | 29.3 | 4.32 |  | 37 | > 100
10 | Cc1ccc(S(=O)(=O)Oc2cc(S(=O)(=O)O)cc3cc(S(=O)(=O)O)cc(N)c23)cc1 |  | > 100 |  | > 100 |  | > 100 |  | > 100 |  | > 100 |  | > 100 |  | > 100 | > 100 |  |  |  | 
11 | CC1=C[C@]2(CC(C)C3C(CC4(C)C5CCC6C(C)(C)C(=O)CC[C@@]67C[C@@]57CC[C@]34C)O2)OC1=O (stereo partly drawn) |  |  |  | > 100 |  |  |  |  |  |  |  |  |  | 79 |  | > 100 | 77.1 |  | 
12 | COc1cc2c3c(n(CCN(C)C)c(=O)c2cc1OC)-c1cc2c(cc1C3=O)OCO2 | 0.218 | > 22.5 |  | > 100 |  | > 32.1 | 6.08 | > 77 | > 29 | > 100 | 27.1 | > 100 | 46.2 | > 100 | > 100 |  |  |  | 
13 | CO/N=C1/c2sccc2[C@H](NC(=O)C(F)(F)F)[C@@H]1O |  | > 100 |  | > 100 |  | > 100 |  | > 100 |  | > 100 |  | > 100 |  | > 100 |  |  |  |  | 
